Measured values reported in US20210338681A1, “COMBINATION THERAPIES” (SECURA BIO, INC., priority 2018, published 2021).
“Also recorded” adds a separate entry of the source.

Tests used:
human macrophages [1] = assay: Phagocytosis of CTV-labelled DLD-1 and Raji cells by human monocyte-derived macrophages, flow cytometry-based assay (Example 1); format: cell-based; settings: FIG. 1
Method: PBMC were isolated using a density gradient from healthy donor blood samples. CD14+ monocytes were then separated using magnetic selection and differentiated into MO macrophages for 6 days in the presence of M-CSF and 3000 nM of duvelisib or vehicle (DMSO). Two cell lines positive for surface expression of CD47, DLD-1 (ATCC® CCL-221™) and Raji cells (ATCC® CCL-86™), were labelled with cell trace violet (CTV). These were then offered to the macrophage cultures in the presence of duvelisib or vehicle control for 4 hours to allow phagocytosis to occur. For the part of the assay where a CD47 blocking antibody and an opsonizing antibody were used, CD47 blocking antibody at 1 μg/ml (clone B6H12) and rituximab (for Raji cells) or cetuximab (for DLD-1 cells) at 1 μg/ml were added during the 4 hours co-culture. The effect of duvelisib on the capacity of macrophages to phagocytose target cells was determined in a flow cytometry-based assay.

human macrophages [2] = assay: Phagocytosis of CTV-labelled Raji cells by human monocyte-derived macrophages with anti-CD47 clone 5F9, flow cytometry-based assay (Example 2); format: cell-based; settings: 3000 nM duvelisib during last 3 days of differentiation; CD47 blocking antibody clone 5F9 300 ng/ml, 2 hours; compared to duvelisib or anti-CD47 alone; FIG. 2
Method: PBMC were isolated using a density gradient from healthy donor blood samples. CD14+ monocytes were then separated using magnetic selection and differentiated into MO macrophages for 6 days in the presence of M-CSF. Duvelisib (3000 nM) or vehicle (DMSO) were added during the last 3 days of differentiation. Raji cells (ATCC® CCL-86™), which are positive for surface expression of CD47, were labelled with cell trace violet (CTV). These cells were then offered to the macrophage cultures in the presence of CD47 blocking antibody at 300 ng/ml (clone 5F9) for 2 hours to allow phagocytosis to occur. The effect of duvelisib on the capacity of macrophages to phagocytose target cells was determined in a flow cytometry-based assay.

C[C@H](Nc1ncnc2[nH]cnc12)c1cc2cccc(Cl)c2c(=O)n1-c1ccccc1 [duvelisib, (S)-3-(1-((9H-purin-6-yl)amino)ethyl)-8-chloro-2-phenylisoquinolin-1(2H)-one]
phagocytosis by human macrophages, duvelisib as a single agent (human macrophages [1]; 3000 nM duvelisib vs vehicle (DMSO) during 6 days differentiation with M-CSF and 4 hours co-culture, target cells DLD-1 and Raji, two representative donors per condition): increases phagocytosis; also recorded: increasing phagocytosis
phagocytosis by human macrophages, duvelisib in combination with anti-CD47 (clone B6H12) and an opsonizing antibody (human macrophages [1]; 3000 nM duvelisib, CD47 blocking antibody clone B6H12 1 μg/ml plus rituximab (Raji cells) or cetuximab (DLD-1 cells) 1 μg/ml during 4 hours co-culture): increases phagocytosis; also recorded: increasing phagocytosis
phagocytosis of Raji Burkitt's lymphoma cells by human macrophages, duvelisib in combination with anti-CD47 (clone 5F9) (human macrophages [2]): enhances phagocytosis; also recorded: increasing phagocytosis
